Here are results for three molecules from patent publication US4683227A, “Antibiotic derivatives of 7β-[2-(thiazol-4-yl)acetamide]-3-chloro-3-cephem-4-carboxylic acids and compositions and method of use thereof” (Eli Lilly and Company, priority 1985, dated 1987).

≈ marks a conversion by molar mass, not a printed value. Some results are limits rather than exact numbers.

Series [1] is described as follows: Oral bioavailability in dogs. In kind it is in vivo. To be noted: female mongrel dogs; oral; calculated with the above-described formulae.
Series [2] in a line: Peroral bioavailability in mice (oral vs subcutaneous dosage). To be noted: 20 mg/kg. The series is classed as in vivo, mice (Cox Male Standard Mice, Lai:COX (Standard) BR). An excerpt: Cox Male Standard Mice, Lai:COX (Standard) BR were housed overnight in a wire-bottom cage with free access to water and liquid diet. The result was a gastro-intestinal tract free of solids, yet without the nutritional shock and coprophagy that often accompanies overnight starvation of rodents. After dosing, the mice were housed individually in ventilated wide-mouth jars containing a layer of buffer beneath an elevated wire screen floor. At intervals after dosing, mice were removed from the jars and heparinized blood, stomach, and small intestine were removed from the animals. The urinary bladder was removed and combined with the urine collected in the buffer in the bottom of the jars. Urine, washings from the stomach and small intestine, and plasma prepared from blood samples were assayed for antibiotic activity. The test procedure used is a modification of the test procedure described by W. E. Wright, et al., J. Antibiotics, 32:1155 (1979).
Dose solutions were prepared in saline at 2 mg/ml for subcutaneous or oral administration. In all cases the compounds were administered to the mice at 20 mg/kg on an equal weight basis.
The biological activity of the samples was determined by a conventional agar well procedure using Bacillus subtilis ATCC 6633 as the test organism.
Peroral bioavailability (BA) of the test compounds in mice can be determined either by comparison of the area under the plasma curves (AUC) after oral or subcutaneous dosage, or by comparison of the urinary excretion of the dose after oral and subcutaneous dosage. Calculations of BA by either method are made with the following formulae: [formula]

For series [3], the system named is Streptococcus sp. group D X66. The series can be described thus: Minimum inhibitory concentration, standard agar dilution method. To be noted: Streptococcus sp. group D X66; agar dilution; read-out: Minimum Inhibitory Concentration. The series is classed as cell-based. An excerpt:
(§1) The method of this invention is useful in treating infections caused by a variety of microorganisms pathogenic to man and animals. […] The concentrations were obtained by the standard agar dilution method.
In general terms: In agar dilution the substance is mixed into plates at graded concentrations.

Series [4] has as its system Staphylococcus aureus V41. Described as above. To be noted: Staphylococcus aureus V41; agar dilution; read-out: Minimum Inhibitory Concentration. The series is classed as cell-based.
Description: as §1

For the next series, the system named is Escherichia coli N10. Described as above. In kind it is cell-based.
Description: as §1

The subject of series [5] is Staphylococcus aureus X1.1. Described as above. The series is classed as cell-based.
Description: as §1

The next series relates to Escherichia coli TEM. The series is described as above. In kind it is cell-based.
Description: as §1

Series [6] relates to Staphylococcus epidermidis 222. The description is as above. The series is classed as cell-based.
Description: as §1

Series [7] deals with Streptococcus pyogenes C203. The series is described as above. The series is classed as cell-based.
Description: as §1

Series [8] has as its system Staphylococcus aureus S13E. Described as above. To be noted: Staphylococcus aureus, S13E, read-out: Minimum Inhibitory Concentration. The series is classed as cell-based.
Description: as §1

In series [9] the test system is Staphylococcus epidermidis Epil. The description is as above. The series is classed as cell-based.
Description: as §1

Series [10] has as its system Haemophilus influenzae C.L. The series is described as above. In kind it is cell-based.
Description: as §1

The subject of another series is Escherichia coli EC14. The series is described as above. The series is classed as cell-based.
Description: as §1

Series [11] has as its system Streptococcus sp. group D 2041. The series is described as above. The series is classed as cell-based. To be noted: Streptococcus sp. group D 2041; agar dilution; read-out: Minimum Inhibitory Concentration.
Description: as §1

In series [12] the test system is Klebsiella pneumoniae X68. The series is described as above. The series is classed as cell-based.
Description: as §1

In series [13] the test system is Streptococcus pneumoniae PARK I. The description is as above. The series is classed as cell-based.
Description: as §1

The subject of series [14] is Klebsiella pneumoniae KAE. The description is as above. In kind it is cell-based. To be noted: Klebsiella pneumoniae KAE; agar dilution; read-out: Minimum Inhibitory Concentration.
Description: as §1

The test system of series [15] is Klebsiella pneumoniae X26. The series is described as above. The series is classed as cell-based.
Description: as §1

Series [16] relates to Haemophilus influenzae 76. The series is described as above. In kind it is cell-based.
Description: as §1

Series [17] concerns Staphylococcus aureus X400. Described as above. The series is classed as cell-based. To be noted: Staphylococcus aureus X400; agar dilution; read-out: Minimum Inhibitory Concentration.
Description: as §1

For series [18] the following is noted: in vivo, po; cited from earlier work.

For the molecule `Nc1nc(CC(=O)N[C@@H]2C(=O)N3C(C(=O)O)=C(Cl)CS[C@H]23)cs1` [Compound 2, 7β-[2-(2-Aminothiazol-4-yl)acetamido]-3-chloro-3-cephem-4-carboxylic acid], in series [1], the bioavailability is given as 28%. The “Oral Bioavailability % BA (AUC)” value in series [2] (area under plasma curves after oral vs subcutaneous dosage) is 62%. For the same molecule, in series [2] (urinary excretion after oral vs subcutaneous dosage), the “Oral Bioavailability % BA (URINE)” value is 64%. The MIC in series [3] is more than 128 µg/mL; in series [4], 32 µg/mL (≈ 85.4 µM); with Escherichia coli N10, 4 µg/mL (≈ 10.7 µM); in series [5] it was 1 µg/mL (≈ 2.67 µM); in the series on Escherichia coli TEM it was 2 µg/mL (≈ 5.34 µM); in series [6], 1 µg/mL (≈ 2.67 µM). Moreover, the MIC in series [7] was 0.06 µg/mL (≈ 0.16 µM); in [8], 32 µg/mL (≈ 85.4 µM); in [9], 4 µg/mL (≈ 10.7 µM); in [10] it was 0.5 µg/mL (≈ 1.33 µM); with Escherichia coli EC14 it was 1 µg/mL (≈ 2.67 µM); in series [11], 32 µg/mL (≈ 85.4 µM). Besides, the MIC in [12] was 0.5 µg/mL (≈ 1.33 µM); in series [13], 0.5 µg/mL (≈ 1.33 µM); in series [14], 16 µg/mL (≈ 42.7 µM); in series [15] it was 0.25 µg/mL (≈ 0.667 µM); in series [16], 0.5 µg/mL (≈ 1.33 µM); in series [17], more than 128 µg/mL.
Turning to `N[C@@H](C(=O)N[C@@H]1C(=O)N2C(C(=O)O)=C(Cl)CS[C@H]12)c1ccccc1` [cefaclor], the “absorption from the gastrointestinal tract” value in series [18] was “high absorption”.
With `CC1=C(C(=O)O)N2C(=O)[C@@H](NC(=O)[C@H](N)C3=CCC=CC3)[C@H]2SC1` [cephradine], in series [18], the “absorption from the gastrointestinal tract” value is reported as “high absorption”.

In general, bioavailability refers to the share of a dose that reaches the circulation, judged against a reference dose that is usually intravenous.
